Measurements: patent US6593357B1, “Pyrazole compositions useful as inhibitors of ERK” (Vertex Pharmaceuticals Incorporated, priority 2000, dated 2003)

molecular target: T1, Aurora2 (Homo sapiens, UniProt O14965); assay: Aurora inhibition, standard coupled enzyme assay; format: biochemical; conditions: 40 μM ATP, 30° C.; read-out: Aurora2 Inhibitory Activity (IC50 class)
T1 sequence (O14965 1-403): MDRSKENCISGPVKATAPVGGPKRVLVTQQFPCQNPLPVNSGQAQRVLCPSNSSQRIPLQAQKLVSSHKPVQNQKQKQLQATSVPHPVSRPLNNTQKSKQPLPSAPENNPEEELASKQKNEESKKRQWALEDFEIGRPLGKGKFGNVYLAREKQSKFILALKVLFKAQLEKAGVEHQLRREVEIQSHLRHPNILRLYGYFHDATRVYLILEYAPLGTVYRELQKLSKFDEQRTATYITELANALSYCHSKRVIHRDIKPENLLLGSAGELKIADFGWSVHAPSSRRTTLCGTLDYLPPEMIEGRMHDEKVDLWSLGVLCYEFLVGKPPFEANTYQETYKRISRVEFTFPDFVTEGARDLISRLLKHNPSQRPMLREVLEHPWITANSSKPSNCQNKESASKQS
Description: Compounds were screened in the following manner for their ability to inhibit Aurora using a standard coupled enzyme assay. To an assay stock buffer solution containing 0.1M HEPES 7.5, 10 mM MgCl2, 25 mM NaCl, 2.5 mM phosphoenolpyruvate, 300 μM NADH, 30 μg/mL pyruvate kinase, 10 μg/mL lactate dehydrogenase, 40 μM ATP, and 800 μM peptide (LRRASLG, American Peptide, Sunnyvale, Calif.) was added a 30 μM solution of the compound in DMSO and the resulting mixture incubated at 30° C. for 10 min. The reaction was initiated by the addition of 10 μL of 70 nM Aurora and 1 mM DTT. The rates of reaction were obtained by monitoring absorbance at 340 nm over a 5 minute read time at 30° C. using a BioRad Ultramark plate reader (Hercules, Calif.). The IC50 was determined from the rate data as a function of inhibitor concentration.
The compound numbers correspond to the compound numbers in Table 1.

Structure (SMILES) | IC50
O=C(NOCc1ccccc1)c1cc(-c2[nH]ncc2-c2ccc(F)c(F)c2)c[nH]1 [II-85] | 5 to 10 µM
O=C(NOCc1ccccc1)c1cc(-c2[nH]ncc2-c2cccc(F)c2F)c[nH]1 [II-103] | 5 to 10 µM
COc1ccc(-c2cn[nH]c2-c2c[nH]c(C(=O)NCC3CCCN(C(=O)OC(C)(C)C)C3)c2)cc1OC (centres unmarked) [II-259] | 5 to 10 µM
COc1ccc(-c2cn[nH]c2-c2c[nH]c(C(=O)N3CCOCC3)c2)cc1OC [II-228] | < 5 µM
O=C(c1cc(-c2n[nH]cc2-c2cc(Cl)cc(Cl)c2)c[nH]1)N1CCOCC1 [II-112] | < 5 µM
O=C(NCc1ccncc1)c1cc(-c2[nH]ncc2-c2ccc3c(c2)OCO3)c[nH]1 [II-213] | 5 to 10 µM
CCN(C)C(=O)c1cc(-c2[nH]ncc2-c2ccc(F)c(Cl)c2)c[nH]1 [II-108] | 5 to 10 µM
O=C(NCc1ccncc1)c1cc(-c2[nH]ncc2-c2cc(F)ccc2F)c[nH]1 [II-98] | 5 to 10 µM
COc1ccc(-c2cn[nH]c2-c2c[nH]c(C(=O)NCc3cccnc3)c2)cc1OC [II-215] | 5 to 10 µM
O=C(NCC1CCCO1)c1cc(-c2[nH]ncc2-c2cc(F)ccc2F)c[nH]1 (centres unmarked) [II-188] | > 10 µM
COc1ccc(-c2cn[nH]c2-c2c[nH]c(C(=O)NCC3CCCO3)c2)cc1OC (centres unmarked) [II-218] | 5 to 10 µM
O=C(NCc1cccnc1)c1cc(-c2[nH]ncc2-c2ccc3c(c2)OCO3)c[nH]1 [II-216] | 5 to 10 µM
CCN(C)C(=O)c1cc(-c2[nH]ncc2-c2ccc(OC)c(OC)c2)c[nH]1 [II-258] | > 10 µM
COc1ccc(-c2cn[nH]c2-c2c[nH]c(C(=O)NCc3ccncc3)c2)cc1OC [II-212] | 5 to 10 µM
O=C(NCc1ccncc1)c1cc(-c2[nH]ncc2-c2ccc(Cl)cc2)c[nH]1 [II-211] | 5 to 10 µM
O=C(NCCc1cnc[nH]1)c1cc(-c2[nH]ncc2-c2cccc(Cl)c2F)c[nH]1 [II-255] | 5 to 10 µM
O=C(NCc1cccnc1)c1cc(-c2[nH]ncc2-c2cc(F)ccc2F)c[nH]1 [II-181] | 5 to 10 µM
O=C(NCCc1cnc[nH]1)c1cc(-c2[nH]ncc2-c2ccc(Cl)c(Cl)c2)c[nH]1 [II-254] | < 5 µM
O=C(NCc1cccnc1)c1cc(-c2[nH]ncc2-c2ccc(Cl)cc2)c[nH]1 [II-214] | 5 to 10 µM
O=C(NCCc1cnc[nH]1)c1cc(-c2[nH]ncc2-c2cc(Cl)cc(Cl)c2)c[nH]1 [II-266] | 5 to 10 µM
CCN(C)C(=O)c1cc(-c2n[nH]cc2-c2cccc(Cl)c2)c[nH]1 [II-93] | < 5 µM
O=C(NCCc1cnc[nH]1)c1cc(-c2[nH]ncc2-c2ccc(Cl)cc2)c[nH]1 [II-252] | 5 to 10 µM
COc1ccc(-c2cn[nH]c2-c2c[nH]c(C(=O)NOCc3ccccc3)c2)cc1OC [II-260] | > 10 µM
O=C(NOCc1ccccc1)c1cc(-c2[nH]ncc2-c2cccc(Cl)c2)c[nH]1 [II-57] | < 5 µM

molecular target: ERK2 (Homo sapiens, UniProt P28482); assay: ERK2 inhibition, spectrophotometric coupled-enzyme assay; format: biochemical; conditions: ERK2 Inhibitory Activity (Ki class), activated ERK2 10 nM, 65 μM ATP, 30° C., pH 7.5
Sequence (P28482 whole entry): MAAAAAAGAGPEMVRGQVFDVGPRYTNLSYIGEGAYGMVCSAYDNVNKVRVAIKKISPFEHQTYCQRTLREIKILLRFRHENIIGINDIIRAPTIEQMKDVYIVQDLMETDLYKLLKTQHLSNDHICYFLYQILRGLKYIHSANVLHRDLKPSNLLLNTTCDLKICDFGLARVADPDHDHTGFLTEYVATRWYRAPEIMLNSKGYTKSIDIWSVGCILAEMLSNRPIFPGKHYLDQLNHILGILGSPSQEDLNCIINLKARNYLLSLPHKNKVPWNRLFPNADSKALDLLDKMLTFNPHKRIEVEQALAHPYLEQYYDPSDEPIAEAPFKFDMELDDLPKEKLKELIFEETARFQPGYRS

Structure (SMILES) | Ki
CCN1CCCC1CNC(=O)c1cc(-c2n[nH]cc2-c2cccc(Cl)c2)c[nH]1 (centres unmarked) [II-286] | > 5 µM

same assay, conditions: activated ERK2 10 nM, 65 μM ATP, 30° C., pH 7.5; read-out: ERK2 Inhibitory Activity (Ki class)

Structure (SMILES) | Ki
O=C(NOCc1ccccc1)c1cc(-c2[nH]ncc2-c2ccc(F)c(F)c2)c[nH]1 [II-85] | < 1 µM
O=C(NOCc1ccccc1)c1cc(-c2[nH]ncc2-c2cccc(F)c2F)c[nH]1 [II-103] | < 1 µM
O=C(c1cc(-c2n[nH]cc2-c2cc(Cl)cc(Cl)c2)c[nH]1)N1CCOCC1 [II-112] | < 1 µM
CCN(C)C(=O)c1cc(-c2[nH]ncc2-c2ccc(F)c(Cl)c2)c[nH]1 [II-108] | < 1 µM
O=C(NCc1ccncc1)c1cc(-c2[nH]ncc2-c2cc(F)ccc2F)c[nH]1 [II-98] | < 1 µM
Nc1cccc(-c2cn[nH]c2-c2c[nH]c(C(=O)NCc3ccccc3)c2)c1 [II-73] | < 1 µM
O=C(c1cc(-c2[nH]ncc2-c2ccc(Cl)c(Cl)c2)c[nH]1)N1CCOCC1 [II-127] | 1 to 5 µM
O=C(c1cc(-c2[nH]ncc2-c2cccc(Cl)c2F)c[nH]1)N1CCOCC1 [II-129] | 1 to 5 µM
O=C(NCc1ccccc1)c1cc(-c2[nH]ncc2-c2ccc(F)cc2)c[nH]1 [II-111] | < 1 µM
CC(C)ONC(=O)c1cc(-c2[nH]ncc2-c2cccc(Br)c2)c[nH]1 [II-161] | > 5 µM
O=C(NOCc1ccccc1)c1cc(-c2[nH]ncc2-c2ccc(F)cc2)c[nH]1 [II-146] | 1 to 5 µM
O=C(NCc1ccccc1)c1cc(-c2[nH]ncc2-c2cccc(Br)c2)c[nH]1 [II-299] | > 5 µM
Cc1ccc(CNC(=O)c2cc(-c3[nH]ncc3-c3cccc(Br)c3)c[nH]2)o1 [II-58] | < 1 µM
COc1cccc(-c2cn[nH]c2-c2c[nH]c(C(=O)N3CCN(C)CC3)c2)c1 [II-29] | > 5 µM
COc1cccc(-c2cn[nH]c2-c2c[nH]c(C(=O)N3CCOCC3)c2)c1 [II-27] | < 1 µM
O=C(NCc1ccncc1)c1cc(-c2[nH]ncc2-c2cccc([N+](=O)[O-])c2)c[nH]1 [II-289] | > 5 µM
O=C(NC(CO)c1ccccc1)c1cc(-c2[nH]ncc2-c2cccc(C(F)(F)F)c2)c[nH]1 (centres unmarked) [II-49] | < 1 µM
O=C(NCC1CCCO1)c1cc(-c2[nH]ncc2-c2ccc(F)c(Cl)c2)c[nH]1 (centres unmarked) [II-100] | < 1 µM
O=C(N[C@@H](CO)c1ccccc1)c1cc(-c2[nH]ncc2-c2cc(Cl)cc(Cl)c2)c[nH]1 [II-39] | < 1 µM
O=C(c1cc(-c2[nH]ncc2-c2cccc(Br)c2)c[nH]1)N(CCCO)Cc1ccncc1 [II-156] | 1 to 5 µM
O=C(c1cc(-c2[nH]ncc2-c2cccc(Br)c2)c[nH]1)N1CCc2ccccc2C1 [II-87] | < 1 µM
O=C(c1cc(-c2[nH]ncc2-c2cccc(Br)c2)c[nH]1)N1CCN(c2cnccn2)CC1 [II-138] | 1 to 5 µM
Cc1cccc(-c2cn[nH]c2-c2c[nH]c(C(=O)NCc3ccccc3)c2)c1 [II-90] | < 1 µM
O=C(NCC1CCCO1)c1cc(-c2[nH]ncc2-c2cc(Cl)cc(Cl)c2)c[nH]1 (centres unmarked) [II-78] | < 1 µM
O=C(NCc1ccccc1)c1cc(-c2n[nH]cc2-c2ccccc2)c[nH]1 [II-5, 4-(4-phenyl-1H-pyrazole-3-yl)-1H-pyrrole-2-carboxylic acid benzylamide] | < 1 µM
COc1cccc(-c2cn[nH]c2-c2c[nH]c(C(=O)N3CCOCC3)c2)c1 [II-135] | 1 to 5 µM

Structure (SMILES) | Ki
CN(Cc1ccccc1)C(=O)c1cc(-c2[nH]ncc2-c2cccc(Br)c2)c[nH]1 [II-83] | < 1 µM
CCOC(=O)c1cc(-c2[nH]ncc2-c2ccc(F)cc2)c[nH]1 [II-11] | > 5 µM
Nc1cc(-c2cn[nH]c2-c2c[nH]c(C(=O)NC(CO)c3ccccc3)c2)cc(I)c1O (centres unmarked) [II-44] | < 1 µM
Cc1cccc(-c2cn[nH]c2-c2c[nH]c(C(=O)NC(CO)c3ccccc3)c2)c1 (centres unmarked) [II-75] | < 1 µM
CN1CCN(C(=O)c2cc(-c3[nH]ncc3-c3ccccc3)c[nH]2)CC1 [II-21] | > 5 µM
CCOC(=O)c1cc(-c2[nH]ncc2-c2cccc([N+](=O)[O-])c2)c[nH]1 [II-6] | < 1 µM
COc1cc2c(cc1OC)C(CO)N(C(=O)c1cc(-c3[nH]ncc3-c3cccc(Br)c3)c[nH]1)CC2 (centres unmarked) [II-105] | < 1 µM
O=C(NC(CO)(CO)CO)c1cc(-c2[nH]ncc2-c2cccc(Br)c2)c[nH]1 [II-295] | > 5 µM
O=C(Nc1ccc(F)c(F)c1)c1cc(-c2[nH]ncc2-c2cccc(Br)c2)c[nH]1 [II-40] | < 1 µM
O=C(NCc1cccnc1)c1cc(-c2[nH]ncc2-c2ccc(Cl)c(Cl)c2)c[nH]1 [II-74] | < 1 µM
NNC(=O)c1cc(-c2[nH]ncc2-c2cccc([N+](=O)[O-])c2)c[nH]1 [II-3] | < 1 µM
COc1ccc(-c2cn[nH]c2-c2c[nH]c(C(=O)NOCc3ccccc3)c2)cc1 [II-133] | 1 to 5 µM
O=C(N[C@@H](CO)Cc1ccccc1)c1cc(-c2[nH]ncc2-c2cccc(Br)c2)c[nH]1 [II-91] | < 1 µM
O=C(NCc1cccnc1)c1cc(-c2[nH]ncc2-c2cccc(F)c2)c[nH]1 [II-119] | 1 to 5 µM
Cc1cccc(-c2cn[nH]c2-c2c[nH]c(C(=O)NCc3ccncc3)c2)c1 [II-96] | < 1 µM
O=C(c1cc(-c2[nH]ncc2-c2ccccc2)c[nH]1)N1CCOCC1 [II-19] | < 1 µM
O=C(NCc1ccccc1)c1cc(-c2[nH]ncc2-c2cccc(F)c2)c[nH]1 [II-63] | < 1 µM
CCOC(=O)c1cc(-c2[nH]ncc2-c2ccc(N)cc2)c[nH]1 [II-164] | > 5 µM
O=C(NC(CCO)c1ccccc1)c1cc(-c2[nH]ncc2-c2cccc(Br)c2)c[nH]1 (centres unmarked) [II-59] | < 1 µM
O=C(c1cc(-c2[nH]ncc2-c2ccc(F)c(Cl)c2)c[nH]1)N1CCOCC1 [II-107] | < 1 µM
CCN(C)C(=O)c1cc(-c2[nH]ncc2-c2cccc(F)c2)c[nH]1 [II-291] | > 5 µM
O=C(c1cc(-c2[nH]ncc2-c2ccccc2)c[nH]1)N1CCCC1 [II-4] | < 1 µM
O=C(c1cc(-c2[nH]ncc2-c2cccc(Br)c2)c[nH]1)N(Cc1ccccc1)[C@H](CO)c1ccccc1 [II-288] | 1 to 5 µM
COc1cccc(-c2cn[nH]c2-c2c[nH]c(C(=O)N3CCCC3)c2)c1 [II-24] | < 1 µM
CCOC(=O)c1cc(-c2[nH]ncc2-c2cccc(Cl)c2)c[nH]1 [II-151] | 1 to 5 µM
COc1cccc(-c2cn[nH]c2-c2c[nH]c(C(=O)NCCN(C)C)c2)c1 [II-25] | > 5 µM
